Data taken from PubChem BioAssay AID1259407 (Chemical Carcinogenesis Research Information System (CCRIS), 2018).
Active and inactive are the calls of the source. No rule for the calls is given here.

System: CCRIS mutagenicity, Ames/micronucleus/aberration tests
Test: CCRIS mutagenicity studies
[1] = Test System: AMES SALMONELLA TYPHIMURIUM, Strain/Indicator: TA97, Metabolic Activation: NONE, Method: STANDARD PLATE
[2] = Test System: AMES SALMONELLA TYPHIMURIUM, Strain/Indicator: TA98, Metabolic Activation: NONE, Method: STANDARD PLATE
[3] = Test System: AMES SALMONELLA TYPHIMURIUM, Strain/Indicator: TA98, Metabolic Activation: RAT, LIVER, S-9, AROCLOR 1254, Method: STANDARD PLATE
[4] = Test System: AMES SALMONELLA TYPHIMURIUM, Strain/Indicator: TA100, Metabolic Activation: NONE, Method: STANDARD PLATE
[5] = Test System: AMES SALMONELLA TYPHIMURIUM, Strain/Indicator: TA100, Metabolic Activation: RAT, LIVER, S-9, AROCLOR 1254, Method: STANDARD PLATE

CCOC(=O)c1[nH]c2ccccc2c1N=Cc1ccc(O)cc1
mutagenic call [1]: active; positive | mutagenic call (Test System: AMES SALMONELLA TYPHIMURIUM, Strain/Indicator: TA97, Metabolic Activation: RAT, LIVER, S-9, AROCLOR 1254, Method: STANDARD PLATE): inactive; negative | mutagenic call [2]: inactive; negative | mutagenic call [3]: inactive; negative | mutagenic call [4]: inactive; negative | mutagenic call [5]: inactive; negative | mutagenic call (Test System: AMES SALMONELLA TYPHIMURIUM, Strain/Indicator: TA102, Metabolic Activation: NONE, Method: STANDARD PLATE): inactive; negative | mutagenic call (Test System: AMES SALMONELLA TYPHIMURIUM, Strain/Indicator: TA102, Metabolic Activation: RAT, LIVER, S-9, AROCLOR 1254, Method: STANDARD PLATE): inactive; negative

N[C@@H](CCC(=O)N[C@@H](CSC(=O)NCCCl)C(=O)NCC(=O)O)C(=O)O
mutagenic call (Test System: AMES SALMONELLA TYPHIMURIUM, Strain/Indicator: TA1535, Metabolic Activation: NONE, Method: STANDARD PLATE): active; positive

c1ccc2c(c1)ccc1c3ccccc3ccc21
mutagenic call [1]: inactive; negative | mutagenic call (Test System: AMES SALMONELLA TYPHIMURIUM, Strain/Indicator: TA97, Metabolic Activation: RAT, LIVER, S-9, PCB, Method: STANDARD PLATE): active; positive | mutagenic call [2]: inactive; negative | mutagenic call [3]: active; positive | mutagenic call (Test System: AMES SALMONELLA TYPHIMURIUM, Strain/Indicator: TA98, Metabolic Activation: RAT, LIVER, S-9, PCB, Method: STANDARD PLATE): active; positive | mutagenic call [4]: inactive; negative | mutagenic call (Test System: AMES SALMONELLA TYPHIMURIUM, Strain/Indicator: TA100, Metabolic Activation: POOLED HUMAN LIVER MICROSOMES, Method: PREINCUBATION): inactive; negative | mutagenic call (Test System: AMES SALMONELLA TYPHIMURIUM, Strain/Indicator: TA100, Metabolic Activation: RAT, LIVER, MICROSOMES, AROCLOR 1254, Method: STANDARD PLATE): active; positive | mutagenic call (Test System: AMES SALMONELLA TYPHIMURIUM, Strain/Indicator: TA100, Metabolic Activation: RAT, LIVER, MICROSOMES, CHRYSENE, Method: STANDARD PLATE): inactive; negative | mutagenic call (Test System: AMES SALMONELLA TYPHIMURIUM, Strain/Indicator: TA100, Metabolic Activation: RAT, LIVER, MICROSOMES, Method: STANDARD PLATE): inactive; negative | mutagenic call [5]: active; positive | mutagenic call (Test System: AMES SALMONELLA TYPHIMURIUM, Strain/Indicator: TA100, Metabolic Activation: RAT, LIVER, S-9, PCB, Method: STANDARD PLATE): active; positive | mutagenic call (Test System: AMES SALMONELLA TYPHIMURIUM, Strain/Indicator: TA100, Metabolic Activation: RAT, LIVER, S-9, PHENOBARBITAL AND 5,6-BENZOFLAVONE, Method: PREINCUBATION): active; positive | mutagenic call (Test System: CHINESE HAMSTER OVARY, Strain/Indicator: CHO-K1-BH4 (HGPRT)/6-THIOGUANINE, Metabolic Activation: NONE, Method: STANDARD PLATE): inactive; negative | mutagenic call (Test System: CHINESE HAMSTER OVARY, Strain/Indicator: CHO-K1-BH4 (HGPRT)/6-THIOGUANINE, Metabolic Activation: RAT, LIVER, S-9, AROCLOR 1254, Method: STANDARD PLATE): active; positive | mutagenic call (Test System: CHINESE HAMSTER OVARY, Strain/Indicator: CHO-UV5 (HGPRT)/6-THIOGUANINE, Metabolic Activation: NONE, Method: STANDARD PLATE): inactive; negative | mutagenic call (Test System: CHINESE HAMSTER OVARY, Strain/Indicator: CHO-UV5 (HGPRT)/6-THIOGUANINE, Metabolic Activation: RAT, LIVER, S-9, AROCLOR 1254, Method: STANDARD PLATE): active; positive | mutagenic call (Test System: LACZ TRANSGENIC MOUSE (MUTATM MOUSE), Strain/Indicator: LACZ MUTANT FREQUENCY, Method: LIVER, SPLEEN, LUNG, KIDNEY, BONE MARROW, COLON HARVESTED 7 D AFTER LAST DOSE, DNA ISOLATED): active; positive; g:c to t:a transversions in all organs

Fc1ccc(Br)cc1
mutagenic call (Test System: Mouse lymphoma, Strain/Indicator: L5178Y (tk+/tk-), Metabolic Activation: None, Method: Suspension/plate): inconclusive | mutagenic call (Test System: Mouse lymphoma, Strain/Indicator: L5178Y (tk+/tk-), Metabolic Activation: Rat, Liver, S-9, Aroclor 1254, Method: Suspension/plate): inconclusive

CC1Cc2cccc3c2N1C(C)C3.CC1Cc2cccc3c2N1C(C)C3.[Cl-].[Cl-].[Cl-].[Cl-].[Pt+2].[Pt+2] (stereo unspecified)
mutagenic call (Test System: AMES SALMONELLA TYPHIMURIUM, Strain/Indicator: TA92, Metabolic Activation: NONE, Method: STANDARD PLATE): inactive; negative | mutagenic call [2]: inactive; negative | mutagenic call [4]: inactive; negative | mutagenic call (Test System: AMES SALMONELLA TYPHIMURIUM, Strain/Indicator: TA2410, Metabolic Activation: NONE, Method: STANDARD PLATE): inactive; negative | mutagenic call (Test System: E. COLI, Strain/Indicator: TM6, Metabolic Activation: NONE, Method: STANDARD PLATE): inactive; negative | mutagenic call (Test System: E. COLI, Strain/Indicator: TM9, Metabolic Activation: NONE, Method: STANDARD PLATE): inactive; negative

Cc1cccc(OC(=O)N(C)N=O)c1
mutagenic call (Test System: E. COLI WP2, Strain/Indicator: WP2, Metabolic Activation: NONE, Method: STANDARD PLATE): active; positive
